Measured values as given in publication PMC6983109, “Efficient Synthesis of Purine Nucleoside Analogs by a New Trimeric Purine Nucleoside Phosphorylase from Aneurinibacillus migulanus AM007” (Molecules, 2019).

Experiments:
[1] = target: purine nucleoside phosphorylase from Aneurinibacillus migulanus AM007 (Aneurinibacillus migulanus AM007); test: SEC; Superdex 200 Increase 10/300 GL on an AKTA pure system, against standard proteins; 0.01 M phosphate buffer, 0.14 M NaCl, pH 8.0; AmPNP at 2 mg/mL; 0.3 mL/min; native mass about 87 kDa compared with about 29 kDa subunit on SDS-PAGE
AmPNP = target: T1, AmPNP (Aneurinibacillus migulanus, UniProt A0A3G5E8S8); test: phosphorolysis, HPLC; format: biochemical; conditions: 10 mM sodium phosphate buffer pH 8.0 (phosphate co-substrate), 50 °C, 0.5–5 mM substrate
T1 construct: full-length ORF 813 bp, 270 residues; N-terminal 6*His tag (pET-28a(+), Nhe I/BamH I), E. coli BL21(DE3), Ni2+ purified; subunit ~29 kDa, native ~87 kDa, trimer
Text: phosphorolysis, HPLC on AmPNP

| stoichiometry N [1] | Compound | Km (AmPNP) [µM] |
| --- | --- | --- |
| 3 | purine nucleoside phosphorylase from Aneurinibacillus migulanus AM007 (enzyme) | – |
| – | Nc1ncnc2c1ncn2[C@@H]1O[C@H](CO)[C@@H](O)[C@H]1O [Adenosine] | 1450 |
| – | Nc1nc2c(ncn2[C@@H]2O[C@H](CO)[C@@H](O)[C@H]2O)c(=O)[nH]1 [Guanosine] | 1160 |
| – | OC[C@H]1O[C@@H](n2cnc3c(O)ncnc32)[C@H](O)[C@@H]1O [Inosine] | 5300 |
